# Results published in patent US9169241B2, “Quinolinyloxyphenylsulfonamides” (Max-Planck-Gesellschaft Zur Forderung der Wissenschaften …, priority 2009, dated 2015).
# Read-outs that look alike come from different tables or passages of the source.
# Key:
# Hs578T [1] = test: Matrigel outgrowth assay/branching assay; type: cell-based; conditions: Homo sapiens, Hs-578T; HS578T cell line; Table Ib; read-out: Total branching inhibition in Matrigel HS578T
# How it was run: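 Cells (5000/well) were seeded onto polymerized 3 mg/ml Matrigel with compound at 3.125, 1.56 or 0.78 μM, or DMSO. Imaging by inverted microscopy at 48, 72 and 96 h scored invasive branching. Only concentrations giving total branching inhibition counted as positive.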
# Hs578T [2] = test: Cell vitality assay (ATP assay, CellTiter-Glo); type: cell-based; conditions: Homo sapiens, Hs-578T; HS578T cell line, 72 h; Table Ib; read-out: IC50 ATP-Assay HS578T after 72 h
# How it was run: (§1)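 Steps: seed 1000 cells per well; add compound (0.195–12.5 μM, 7 points) or DMSO; incubate 72 h; equilibrate to room temperature ~30 min; add reagent, shake 2 min, stand 10 min; read luminescence. IC50 relative to DMSO-control ATP.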
# indicated cell line = test: Wound healing migration assay (Table IV); type: cell-based; conditions: compounds at 12.5, 6.25, 3.125 μM, 48 h-72 h
# How it was run: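 Cells seeded at 150000/24 well, grown to monolayer overnight, scratched with a pipette tip, then treated with compound at 12.5, 6.25 or 3.125 μM versus DMSO. Stopped by crystal violet fixation at 48-72 h once control wounds closed; IC50 taken as 50% wound size between t0 and t48 or t72.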
# SF126 = test: Cell vitality assay (ATP assay, CellTiter-Glo); type: cell-based; conditions: Homo sapiens, SF-126; cell vitality assay, SF126; Table IIb; read-out: IC50 SF126
# How it was run: as §1
# U118 = test: Cell vitality assay (ATP assay, CellTiter-Glo); type: cell-based; conditions: cell vitality assay, U118; Table IIc; read-out: IC50 U118
# How it was run: as §1
# [3] = Homo sapiens, C8161 cells, read-out: IC50 Wound healing Assay C8161
# [4] = SF763 cells, read-out: IC50 Wound healing Assay SF763
SMILES,melting point [°C],IC50 (indicated cell line; [3]) [µM],IC50 (indicated cell line; [4]) [µM],IC50 (Hs578T [1]) [µM],IC50 (Hs578T [2]) [µM],IC50 (SF126) [µM],IC50 (U118) [µM]
"COc1cc2c(Oc3ccc(NS(=O)(=O)c4cccc5ccccc45)cc3F)ccnc2cc1OCCCN1CCCC(C)C1 (stereo not drawn) [Example 58, Naphthalene-1-sulfonic acid (3-fluoro-4-{6-methoxy-7-[3-(3-methyl-piperidin-1-yl)-propoxy]-quinolin-4-yloxy}-phenyl)-amide]",131 to 133,12.5 to 50,≤ 12.5,≤ 10,≤ 12.5,–,–
"COc1cc2c(Oc3ccc(NS(=O)(=O)c4c(F)cccc4F)cc3F)ccnc2cc1OCCN1CCOCC1 [Example 82, 2,6-Difluoro-N-{3-fluoro-4-[6-methoxy-7-(2-morpholin-4-yl-ethoxy)-quinolin-4-yloxy]-phenyl}-benzenesulfonamide]",182 to 183,≤ 12.5,≤ 12.5,≤ 10,≤ 12.5,–,–
"COc1cc2c(Oc3cccc(NS(=O)(=O)c4ccccc4C(F)(F)F)c3)ccnc2cc1OCCCN1CCN(C)CC1 [Example 102, N-(3-{6-Methoxy-7-[3-(4-methyl-piperazin-1-yl)-propoxy]-quinolin-4-yloxy}-phenyl)-2-trifluoromethyl-benzenesulfonamide]",155 to 156,12.5 to 50,≤ 12.5,10 to 25,≤ 12.5,–,–
"COc1cc2c(Oc3ccc(NS(=O)(=O)c4ccc(F)c(Cl)c4)cc3F)ccnc2cc1OCCCN1CCCC(C)C1 (stereo not drawn) [Example 57, 3-Chloro-4-fluoro-N-(3-fluoro-4-{6-methoxy-7-[3-(3-methyl-piperidin-1-yl)-propoxy]-quinolin-4-yloxy}-phenyl)-benzenesulfonamide]",124 to 126,≤ 12.5,12.5 to 50,≤ 10,≤ 12.5,–,–

# The next lines start with results.
melting point [°C],IC50 (indicated cell line; [3]) [µM],IC50 (indicated cell line; [4]) [µM],SMILES,IC50 (Hs578T [1]) [µM],IC50 (Hs578T [2]) [µM],IC50 (SF126) [µM],IC50 (U118) [µM]
173 to 175,≤ 12.5,12.5 to 50,"COc1cc2c(Oc3ccc(NS(=O)(=O)c4cc(Cl)cc(Cl)c4OC)cc3F)ccnc2cc1OCCCN1CCCCC1 [Example 34, 3,5-Dichloro-N-{3-fluoro-4-[6-methoxy-7-(3-piperidin-1-yl-propoxy)-quinolin-4-yloxy]-phenyl}-2-methoxy-benzenesulfonamide]",≤ 10,≤ 12.5,–,–
168 to 169,≤ 12.5,12.5 to 50,"COc1cc2c(Oc3ccc(NS(=O)(=O)c4ccccc4F)cc3F)ccnc2cc1OCCN1CCOCC1 [Example 81, 2-Fluoro-N-{3-fluoro-4-[6-methoxy-7-(2-morpholin-4-yl-ethoxy)-quinolin-4-yloxy]-phenyl}-benzenesulfonamide]",≤ 10,≤ 12.5,–,–
183 to 185,≤ 12.5,≤ 12.5,"COc1cc2c(Oc3ccc(NS(=O)(=O)c4cc(Cl)cc(Cl)c4OC)cc3F)ccnc2cc1OCCCN1CCN(C)CC1 [Example 35, 3,5-Dichloro-N-(3-fluoro-4-{6-methoxy-7-[3-(4-methyl-piperazin-1-yl)-propoxy]-quinolin-4-yloxy}-phenyl)-2-methoxy-benzenesulfonamide]",≤ 10,≤ 12.5,–,–
102 to 106,≤ 12.5,–,"COc1cc2c(Oc3ccc(NS(=O)(=O)c4ccccc4C(F)(F)F)cc3F)ccnc2cc1OCCCN1CCN(C)CC1 [Example 24, N-(3-Fluoro-4-{6-methoxy-7-[3-(4-methyl-piperazin-1-yl)-propoxy]-quinolin-4-yloxy}-phenyl)-2-trifluoromethyl-benzenesulfonamide]",–,–,≤ 12.5,12.5 to 50
